From ChEMBL document CHEMBL5352397, “Exploring gabosine and chlorogentisyl alcohol derivatives from a marine-derived fungus as EcGUS inhibitors with informatic assisted approaches” (Eur J Med Chem, 2022) come the findings set out here.

For experiment [1], the target named is Beta-glucuronidase (Escherichia coli (strain K12)) (UniProt P05804). As to the kind of experiment: Inhibition of Escherichia coli beta-glucuronidase assessed as reduction of p-nitrophenol release using beta-PNPG as substrate at 10 uM incubated for 30 mins by Spectra max microplate reader analysis relative to control.
The nature of experiment [2]: Antiproliferative activity against human U266B cells assessed as cell viability at 20 uM incubated for 48 hrs by MTT assay. Type of experiment: functional. The conditions noted are these: read-out: Activity.
Experiment [3] concerns the target T1, Beta-glucuronidase (Escherichia coli (strain K12), UniProt P05804). As to the kind of experiment: Non-competitive inhibition of Escherichia coli beta-glucuronidase assessed as inhibition constant using beta-PNPG as substrate incubated for 30 mins by Lineweaver-Burk plot analysis.
Experiment [4] addresses T1, Beta-glucuronidase. Description: Non-competitive inhibition of Escherichia coli beta-glucuronidase assessed as reduction of p-nitrophenol release using beta-PNPG as substrate incubated for 30 mins by Spectra max microplate reader analysis.
A further experiment concerns NAMALVA. Description: Antiproliferative activity against human NAMALVA cells assessed as cell viability at 20 uM incubated for 48 hrs by MTT assay. Type of experiment: functional. The conditions noted are these: read-out: Activity. For orientation: Tetrazolium dyes change colour on reduction, which living cells bring about.
Experiment [5] concerns the target Beta-glucuronidase (Escherichia coli (strain K12)) (UniProt P05804). Description: Non-competitive inhibition of Escherichia coli beta-glucuronidase assessed as reduction of p-nitrophenol release using beta-PNPG as substrate at 10 uM incubated for 30 mins by Spectra max microplate reader analysis relative to control.
The target in experiment [6] is T1, Beta-glucuronidase. As to the kind of experiment: Inhibition of Escherichia coli beta-glucuronidase assessed as inhibition constant using beta-PNPG as substrate incubated for 30 mins by Lineweaver-Burk plot analysis.
For experiment [7], the target named is T1, Beta-glucuronidase. As to the kind of experiment: Inhibition of Escherichia coli beta-glucuronidase assessed as reduction of p-nitrophenol release using beta-PNPG as substrate incubated for 30 mins by Spectra max microplate reader analysis.
The target of experiment [8] is Beta-glucuronidase (Escherichia coli (strain K12)) (UniProt P05804). Description: Inhibition of Escherichia coli beta-glucuronidase using beta-PNPG as substrate at 2 to 8 uM incubated for 30 mins by Lineweaver-Burk plot analysis. Particulars: dose 2-8 µM.
Experiment [9] has the same target. As to the kind of experiment: Inhibition of Escherichia coli beta-glucuronidase using beta-PNPG as substrate at 50 to 100 uM incubated for 30 mins by Lineweaver-Burk plot analysis. The conditions noted are these: dose 50-100 µM.

The structures appear in SMILES notation. Calls of active or inactive are those of the source. The rule behind the calls is not given here.

The term inhibition denotes the change of the read-out against control, counted positive when it falls. The Ki is a dissociation constant, usually derived from enzyme kinetics or from competition with a known ligand. By IC50 is commonly meant the concentration at which inhibition is half-maximal.

Sequence of Beta-glucuronidase (Escherichia coli (strain K12)) (P05804 whole entry, looked up): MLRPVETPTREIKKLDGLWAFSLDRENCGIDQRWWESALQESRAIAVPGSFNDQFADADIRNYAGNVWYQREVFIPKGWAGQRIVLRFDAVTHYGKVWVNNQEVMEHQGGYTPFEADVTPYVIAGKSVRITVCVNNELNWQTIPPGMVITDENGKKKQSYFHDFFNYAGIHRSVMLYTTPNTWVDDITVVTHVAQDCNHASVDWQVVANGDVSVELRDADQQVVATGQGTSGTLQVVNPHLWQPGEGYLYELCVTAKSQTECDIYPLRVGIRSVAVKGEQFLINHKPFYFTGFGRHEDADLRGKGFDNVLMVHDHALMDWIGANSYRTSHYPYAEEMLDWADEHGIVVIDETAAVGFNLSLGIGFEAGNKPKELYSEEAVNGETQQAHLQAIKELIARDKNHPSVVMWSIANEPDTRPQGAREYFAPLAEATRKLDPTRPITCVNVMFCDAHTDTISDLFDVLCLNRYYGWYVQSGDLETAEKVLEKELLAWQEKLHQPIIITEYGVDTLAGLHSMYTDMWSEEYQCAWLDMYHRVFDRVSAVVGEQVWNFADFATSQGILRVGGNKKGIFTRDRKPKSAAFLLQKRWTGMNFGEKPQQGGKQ
T1 sequence (P05804 whole entry): as the sequence (P05804 whole entry, looked up) above

In the case of `CCCCOCC1=C[C@@H](O)[C@@H](O)[C@H](O)C1=O`, in experiment [1], the inhibition worked out at 39.3%.

On to `OCc1cc(O)cc(Cl)c1O`, for which the viability at 20 µM in experiment [2] was found to be 94.1%; in the experiment on NAMALVA, 70.4%. In addition, at Beta-glucuronidase [3], the Ki was determined as 0.58 µM. Further, the IC50 at Beta-glucuronidase [4] came out at 0.74 µM. Further, the inhibition in experiment [5] was determined as 101%.

Turning to `C[C@H]1C[C@H](O)[C@@H](O)C[C@H]1OCc1cc(O)cc(Cl)c1O`, on Beta-glucuronidase [6], the inhibition constant (Ki) was determined as 1.64 µM. For the same compound, the figures for the viability at 20 µM (in [2]; in the experiment with NAMALVA) were 115% and 71.6%, respectively. Moreover, the IC50 on Beta-glucuronidase [7] came out at 0.63 µM. For the same compound, the inhibition in experiment [1] stood at 92.8%.

Turning to `CO[C@@H]1[C@@H](O)C=C(Cl)C(=O)[C@]12CCc1cc(O)cc(Cl)c1O2`, the Ki on Beta-glucuronidase [6] stood at 2.66 µM. In addition, the viability at 20 µM is 84.9% in [2] and 58.3% with NAMALVA. The IC50 on Beta-glucuronidase [7] was determined as 1.42 µM. Further, in experiment [1], the inhibition was 98.4%.

As for `Cc1cc2c(c(=O)o1)C[C@H]1C(=O)[C@@H](O)[C@H](O)[C@H](O)[C@H]1O2`, the inhibition in [1] came out at 25.6%.

As to `C[C@H]1C[C@H](OCc2cc(O)cc(Cl)c2O)[C@@H](O)C[C@H]1O`, the Ki on Beta-glucuronidase [6] turned out to be 4.27 µM. Further, the figures for the viability at 20 µM (in experiment [2]; with NAMALVA) were 77.8% and 71.7%, respectively. For the same compound, the IC50 on Beta-glucuronidase [7] stood at 0.64 µM. The inhibition in experiment [1] is 92.1%.

On to `CCC1=C[C@@H](O)[C@@H](O)[C@H](Cl)C1=O`, for which the viability at 20 µM in experiment [2] came to 96.3%; with NAMALVA, 79.2%. Moreover, on Beta-glucuronidase [3], the Ki stood at 1.26 µM. Also, the IC50 at Beta-glucuronidase [4] worked out at 1.26 µM. In addition, in [5], the inhibition is 99.1%.

`Oc1cc(Cl)c(O)c(COCc2cc(O)cc(Cl)c2O)c1`: the Ki on Beta-glucuronidase [6] came to 0.71 µM. Moreover, the viability at 20 µM in [2] came out at 88.6%; with NAMALVA, 56.6%. Also, at Beta-glucuronidase [7], the IC50 turned out to be 0.58 µM. For the same compound, in experiment [1], the inhibition stood at 101%.

In the case of `Cc1cc(O)c(Cc2cc(O)cc(Cl)c2O)c(=O)o1`, the inhibition in experiment [1] amounted to 20.1%.

Take `O=C1C(Cc2cc(O)cc(Cl)c2O)=C[C@H](O)[C@@H](O)[C@@]12CCc1cc(O)c(Cl)c(Cl)c1O2`: the inhibition result in experiment [8] is “Active”. For the same compound, at Beta-glucuronidase [6], the Ki was 1.09 µM. The viability at 20 µM is 95% in [2] and 83.9% in the experiment with NAMALVA. In addition, the IC50 at Beta-glucuronidase [7] is 0.24 µM. For the same compound, the inhibition in experiment [1] is 98%.

For the compound `CCCCO[C@@H]1C(=O)C(C)=C[C@@H](O)[C@H]1O`, the Ki at Beta-glucuronidase [6] was determined as 7.32 µM. For the same compound, the figures for the viability at 20 µM (in [2]; with NAMALVA) were 109% and 91.7%, respectively. At Beta-glucuronidase [7], the IC50 is 4.61 µM. Further, in experiment [1], the inhibition stood at 86.5%.

On to `C[C@@H]1C[C@@H](O)[C@H](O[C@@H]2[C@@H](O)C=C(Cl)C(=O)[C@]23CCc2cc(O)cc(Cl)c2O3)C[C@@H]1O`, for which, in [1], the inhibition is 15.3%.

As to `C[C@H]1C[C@H](O)[C@@H](OCc2cc(O)cc(Cl)c2O)C[C@H]1O`, the inhibition result in experiment [8] is “Active”. For the same compound, the Ki at Beta-glucuronidase [6] was determined as 3.47 µM. Further, the viability at 20 µM in [2] is 7.86%; in the experiment on NAMALVA it was -3.03%. For the same compound, the IC50 on Beta-glucuronidase [7] is 0.4 µM. Further, the inhibition in experiment [1] is 91.8%.

As to `O=C1C(Cl)=C[C@H](O)[C@H](O)[C@@]12CCc1cc(O)cc(Cl)c1O2`, on Beta-glucuronidase [6], the Ki stood at 4.43 µM. The results for the viability at 20 µM (in [2]; in the experiment on NAMALVA) were 52.6% and -0.33%, respectively. The IC50 at Beta-glucuronidase [7] stood at 2.15 µM. Further, in experiment [1], the inhibition amounted to 86.3%.

Regarding `O=C(O)c1cc(=O)c2ccccc2[nH]1`, the inhibition in [1] was 10.8%.

For `O=c1[nH]cc(F)c(=O)[nH]1` [FLUOROURACIL], the viability at 20 µM in experiment [2] is 0%; in the experiment on NAMALVA, 11.3%.

Consider `O=C(O)[C@@H](O)[C@H]1OC(=O)[C@H](O)[C@H]1O` [D-SACCHARIC ACID 1,4-LACTONE], for which the IC50 on Beta-glucuronidase [7] was 56.7 µM. In experiment [1], the inhibition amounted to 11.6%. Further, in [9], the inhibition result was “Active”.

As to `O=C1C(Cl)=C[C@H](O)[C@@H](O)[C@@]12CCc1cc(O)cc(Cl)c1O2`, on Beta-glucuronidase [6], the Ki is 1.16 µM. The viability at 20 µM in experiment [2] was found to be 79.6%; in the experiment with NAMALVA, 37%. In addition, the IC50 at Beta-glucuronidase [7] worked out at 2.83 µM. For the same compound, the inhibition in experiment [1] worked out at 96.5%.

In the case of `CC1=C[C@@H](O)[C@@H](O)[C@H](Cl)C1=O`, on Beta-glucuronidase [6], the Ki was found to be 0.67 µM. Also, the values for the viability at 20 µM (in [2]; in the experiment with NAMALVA) were 105% and 113%, respectively. The IC50 at Beta-glucuronidase [7] was determined as 1.01 µM. Further, the inhibition in [1] stood at 100%.

`COCc1cccc(Cl)c1O`: the inhibition in experiment [1] came out at 7.73%.

Turning to `Cc1cccc(O)c1C(=O)O[C@@H]1C(=O)C(CO)=C[C@@H](O)[C@H]1O`, the inhibition in experiment [1] came out at 27.6%.

For the compound `Cc1cc2c(c(=O)o1)C[C@@H]1C(=O)C(Cl)=C[C@H](O)[C@H]1O2`, the inhibition in [1] stood at 55.1%.

`Cc1cc2c(c(=O)o1)C[C@H]1[C@@H](O)[C@H](O)[C@H](O)[C@H]3c4c(cc(C)oc4=O)O[C@]31O2`: the inhibition in experiment [1] worked out at 5.16%.

With `O=C1C(Cl)=C[C@H](O)[C@@H](O)[C@]12CCc1cc(O)cc(Cl)c1O2`, the inhibition in experiment [1] was 49.9%.

For `O=C(OCc1cc(O)cc(Cl)c1O)c1cnccc1O`, on Beta-glucuronidase [6], the Ki is 1.55 µM. Moreover, the viability at 20 µM in experiment [2] turned out to be 94.9%; with NAMALVA it was 39.4%. Moreover, the IC50 on Beta-glucuronidase [7] turned out to be 1.95 µM. Besides, the inhibition in [1] turned out to be 87.9%.

With `O=C1C(COCc2cc(O)cc(Cl)c2O)=C[C@@H](O)[C@@H](O)[C@@H]1Cl`, the Ki at Beta-glucuronidase [6] came out at 0.86 µM. Also, the viability at 20 µM in experiment [2] was determined as 105%; in the experiment with NAMALVA, 65.1%. Besides, on Beta-glucuronidase [7], the IC50 is 1.91 µM. Further, the inhibition in experiment [1] was 87.1%.

In the case of `O=Cc1cc(O)cc(Cl)c1O`, in experiment [1], the inhibition was found to be 69%.
